Here are results for three molecules from patent US20240270786A1, “STEROID COMPOUNDS” (Epirium Bio Inc., priority 2022, published 2024).

Values joined by “and” are separate entries in the source; they are usually repeats but may differ in a detail not shown here. Equal entries are not always repeated.

The assay concerns PGC-1α. The experiment in a line: In vivo PGC-1α expression in liver of LPS-treated mice (ELISA). Details: species or system C57BL/6 mice. Particulars: LPS 3 mg/Kg IP, test compound 10 mg/kg PO BID, liver, 24 hours post LPS; for PGC-1α levels: C57BL/6 mice; for PGC-1α level (%): Control = 100. The procedure:
C57BL/6 mice were procured from Vivo Bio Tech Ltd. Male mice were used for the study within an age range of 7 to 8 weeks. Body weight for these mice ranged from 20 g to 25 g. Animals were housed in a group of 6 in individually ventilated cages with temperature of 22±3° C., a relative humidity of 50 to 60%. The bottom of the cages was layered with sterilized corn cob. Animals were provided with gamma irradiated feed and autoclaved drinking water ad-libitum. The IVCs were maintained at an environment controlled (Centrally Air-Conditioned) room at a temperature of 22±3° C., a relative humidity of 50 to 60%, light intensity of 250-300 lux and a 12 hour light-dark cycle and noise intensity of <85 db.
Method of Preparation: LPS was dosed at 3 mg/kg in a dose volume of 10 ml/kg. For this, 0.3 mg/ml of LPS solution (Micronized suspension) was prepared. Butter paper was placed on analytical balance, tarred and LPS was placed on butter paper and its weight was noted down. LPS was transferred to 15 ml falcon tube. Then required amount of normal saline was added to it to make it 0.3 mg/ml. The solution was vortexed properly for 5 minutes and placed on ice. LPS solution was vortexed every time before aspiration and injection.
LPS was dosed at 3 mg/kg. Each test compound was dosed at 10 mg/kg, 2 hour and 15 min post LPS administration.
0.5% CMC was used as a vehicle with a dose volume of 10 ml/kg. An IP route was used for LPS, and a PO route was used for each test compound. Animals were sacrified 24 hours post LPS dosing, and plasma were collected. PGC-1α level was measured in liver samples, and other tissues were stored for future analysis. PGC-1α level was checked using ELISA kit—CUSABIO Mouse PPARGC1A ELISA kit.
Protocol: One day before start of the experiment C57BL/6 Mice (Male, 6-7-week-old) were randomized on the basis of their body weight and were divided into groups. All the cages were assigned the respective group name. Animals inside each cage were marked on the base of the tails with permanent marker to distinguish each animal. Mice were fasted overnight. Next day morning animals were dosed with test item. Group 1 (Control) and Group 2 (LPS) Animals were dosed with vehicle (0.5% CMC). Test items were prepared in 0.5% CMC by trituration in mortar and pestle and addition of CMC drop by drop. 2 hour post test item/vehicle dosing animals were administered with LPS through IP route at 3 mg/kg of body weight. Group 1 (Control) animals were administered with saline. 0.25 hour post LPS administration, animals were again dosed with test item/vehicle. Post dosing, animals were returned to their respective cages and kept until termination of the study. No feed was offered to any group. Animals were provided with water. 24 hour post LPS administration, blood was collected from each animal under influence of mild isoflurane anesthesia through retro-orbital technique. Animals were sacrificed by CO2 asphyxiation technique. Post-termination, animals were dissected and vital organs, liver, brain, skeleton muscle were collected in Eppendorf tubes and flash frozen in liquid nitrogen. Serum was collected from whole blood by centrifuging it at 4° C. at 10,000 RPM and for 10 minutes. (Blood was left for 2 hour for coagulation before centrifugation) After completion of the experiment, all collected samples were stored at −80° C. until analysis.
Assay Methods/Protocol: The mortar was chilled with liquid nitrogen and then the small tissue pieces were grinded in the presence of liquid nitrogen to a fine powder. Immediately after grinding, transferred small amount of tissue powder to a 1.5 ml micro centrifuge tube containing 1.0 ml lysis buffer (RIPA buffer+Protease inhibitor). The samples were then incubated on ice for 2 hours. The samples were vortexed every 15 minutes. The samples were then centrifuged at 13000×g for 15 minutes at 2-8° C. After centrifugation the supernatant was removed carefully and pellet was discarded. […]
A general note: An ELISA detects its analyte on a solid surface through an enzyme-linked reagent.

As for `CNC(=O)[C@H]1CCC2C3CC=C4N(C)C(=O)CC[C@]4(C)C3[C@@H](O)C[C@@]21C` (stereo partly drawn) [Compound 40, (4aR,5S,6aS)-5-hydroxy-N,1,4a,6a-tetramethyl-2-oxo-2,3,4,4a,4b,5,6,6a,7,8,9,9a,9b,10-tetradecahydro-1H-indeno[5,4-f] quinoline-7-carboxamide], the PGC-1α levels is 39014 pg/mL and 22668 pg/mL; the “PGC-1α level (%)” value was 73% and 75%.

Consider `CN1C(=O)CC[C@@]2(C)C1=CCC1C2[C@@H](O)C[C@@]2(C)C1CC[C@@H]2NC(=O)C1CC1` (stereo partly drawn) [Compound 26, N-((4aR,5S,6aS,7S)-5-hydroxy-1,4a,6a-trimethyl-2-oxo-2,3,4,4a,4b,5,6,6a,7,8,9,9a,9b,10-tetradecahydro-1H-indeno[5,4-f]quinolin-7-yl)cyclopropanecarboxamide], for which the PGC-1α levels was determined as 32298 pg/mL and the “PGC-1α level (%)” value came out at 84%.

Consider `CC(C)CCNC(=O)C1CCC2C3CC=C4N(C)C(=O)CC[C@]4(C)C3[C@@H](O)C[C@]12C` (stereo partly drawn) [Compound 36, (4aR,5S,6aS)-5-hydroxy-N-isopentyl-1,4a,6a-trimethyl-2-oxo-2,3,4,4a,4b,5,6,6a,7,8,9,9a,9b,10-tetradecahydro-1H-indeno[5,4-f]quinoline-7-carboxamide], for which the PGC-1α levels was determined as 29341 pg/mL and the “PGC-1α level (%)” value was 77%.
